Laboratory results taken from patent US20060223996A1, “IL-12 modulatory compounds” (Synta Pharmaceuticals Corp., priority 2004, published 2006).
pIC50: −log10 of the molar value.

System: IL-12
Test: Human in vitro assay: inhibition of IL-12 production in IFNγ/LPS- or IFNγ/SAC-stimulated human PBMC or THP-1 cells (ELISA)
Format: cell-based
Conditions: read-out: IC50 Range (representative in vitro IC50 data)
Summary of the method: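 PBMC (5×10^5 cells/well) primed with IFNγ 30 U/mL for 22 h then LPS 1 μg/mL, or IFNγ 100 U/mL then SAC 0.01%; THP-1 primed with IFNγ 100 U/mL for 22 h then SAC 0.025%, with compound in 0.25% DMSO. Supernatant IL-12 p70/p40 measured by sandwich ELISA after 18 h; IC50 derived; viability by MTS.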

pIC50	SMILES
> 6.00	Cc1[nH]c2ccc(NC(=O)c3cc(NCC(=O)N(C)C)nc(N4CCOCC4)n3)cc2c1C [Compound 112, 6-(Dimethylcarbamoylmethyl-amino)-2-morpholin-4-yl-pyrimidine-4-carboxylic acid (2,3-dimethyl-1H-indol-5-yl)-amide]
> 6.00	Cc1[nH]c2ccc(NC(=O)c3cc(N(C)CC(=O)N4CCCCC4)nc(N4CCOCC4)n3)cc2c1C [Compound 113, 6-[Methyl-(2-oxo-2-piperidin-1-yl-ethyl)-amino]-2-morpholin-4-yl-pyrimidine-4-carboxylic acid (2,3-dimethyl-1H-indol-5-yl)-amide]
> 6.00	Cc1[nH]c2ccc(NC(=O)c3cc(N(C)CC(=O)N4CCOCC4)nc(N4CCOCC4)n3)cc2c1C [Compound 114, 6-[Methyl-(2-morpholin-4-yl-2-oxo-ethyl)-amino]-2-morpholin-4-yl-pyrimidine-4-carboxylic acid (2,3-dimethyl-1H-indol-5-yl)-amide]
> 6.00	O=C(Nc1cccc(-n2cccn2)c1)c1cc(OCC(=O)N2CCCCC2)nc(N2CCOCC2)n1 [Compound 115, 2-Morpholin-4-yl-6-(2-oxo-2-piperidin-1-yl-ethoxy)-pyrimidine-4-carboxylic acid (3-pyrazol-1-yl-phenyl)-amide]
> 6.00	CN(C)c1cccc(NC(=O)c2cc(N(C)CC(=O)N3CCCCC3)nc(N3CCOCC3)n2)c1 [Compound 116, 6-[Methyl-(2-oxo-2-piperidin-1-yl-ethyl)-amino]-2-morpholin-4-yl-pyrimidine-4-carboxylic acid (3-dimethylamino-phenyl)-amide]
> 6.00	Cc1[nH]c2ccc(NC(=O)c3cc(N(C)CC(N)=O)nc(N4CCOCC4)n3)cc2c1C [Compound 117, 6-(Carbamoylmethyl-methyl-amino)-2-morpholin-4-yl-pyrimidine-4-carboxylic acid (2,3-dimethyl-1H-indol-5-yl)-amide]
> 6.00	O=C(Nc1cccc(Br)c1)Nc1cc(N2CCOCC2)nc(OCCN2CCOCC2)n1 [Compound 118]
≤ 6.00	O=C(Nc1ccc(Cl)c(Cl)c1)Nc1cc(N2CCOCC2)nc(OCCN2CCOCC2)n1 [Compound 119, 1-(3,4-Dichloro-phenyl)-3-[6-morpholin-4-yl-2-(2-morpholin-4-yl-ethoxy)-pyrimidin-4-yl]-urea]
≤ 6.00	O=C(Nc1ccc2c(c1)CCC2)Nc1cc(N2CCOCC2)nc(OCCN2CCOCC2)n1 [Compound 120, 1-Indan-5-yl-3-[6-morpholin-4-yl-2-(2-morpholin-4-yl-ethoxy)-pyrimidin-4-yl]-urea]
> 6.00	O=C(Nc1cccc(C(F)(F)F)c1)Nc1cc(N2CCOCC2)nc(OCCN2CCOCC2)n1 [Compound 121, 1-[6-Morpholin-4-yl-2-(2-morpholin-4-yl-ethoxy)-pyrimidin-4-yl]-3-(3-trifluoromethyl-phenyl)-urea]
≤ 6.00	Cc1ccc(NC(=O)Nc2cc(N3CCOCC3)nc(OCCN3CCOCC3)n2)cc1C [Compound 122, 1-(3,4-Dimethyl-phenyl)-3-[6-morpholin-4-yl-2-(2-morpholin-4-yl-ethoxy)-pyrimidin-4-yl]-urea]
≤ 6.00	O=C(Nc1ccc2c(c1)OCO2)Nc1cc(N2CCOCC2)nc(OCCN2CCOCC2)n1 [Compound 123, 1-Benzo[1,3]dioxol-5-yl-3-[6-morpholin-4-yl-2-(2-morpholin-4-yl-ethoxy)-pyrimidin-4-yl]-urea]
≤ 6.00	O=C(Nc1ccc2ccccc2c1)Nc1cc(N2CCOCC2)nc(OCCN2CCOCC2)n1 [Compound 124, 1-[6-Morpholin-4-yl-2-(2-morpholin-4-yl-ethoxy)-pyrimidin-4-yl]-3-naphthalen-2-yl-urea]
> 6.00	O=C(Nc1cccc(F)c1)Nc1cc(OCCN2CCOCC2)nc(N2CCOCC2)n1 [Compound 125, 1-(3-Fluoro-phenyl)-3-[2-morpholin-4-yl-6-(2-morpholin-4-yl-ethoxy)-pyrimidin-4-yl]-urea]
